From US20200061076A1, “METHODS OF TREATING LEUKODYSTROPHIES” (Ramot at Tel-Aviv University Ltd., priority 2017, published 2020)

Legend:
Mut MEFs [1] = test: Cell survival assay, Crystal violet staining, Mut MEFs; assay type: cell-based, mouse; details: for Survival (%) ± SEM Mut MEFs: 24 hours, untreated cells set to 100%
Protocol: (§1) Cells were seeded on 96-wells plate at a density of 5000 cells per well. Astrocytes were seeded following coating with 0.001% PDL.

[2] = system: Mut MEFs (primary fibroblasts from Eif2b5 R132H/R132H mice); test: Image-based single cell analysis of ROS level (cellROX); design: species or system mouse; details: 10 μM, 24 hours incubation, compared with WT level (FIG. 3)
Protocol: Mut MEFs were treated with the indicated compounds at 10 μM for 24 hours followed by staining with fluorogenic dyes and image-based single-cell analysis. Shown is average effect on ROS level from at least 3-independent experiments ±SEM. All values are statistically significant, p<0.02. The extreme SEM points of all values are below the 90% cut-off, therefore the actual average reduction is between 12% and 29%. […] Mut MEFs were incubated or not for 24 hours with 10 μM of the indicated compound, washed and stained with Crystal Violet. Shown is average absorbance at 570 nm normalized (%) to non-treated cells of 3 independent experiments ±SEM, * p=0.0003. […] Mut MEFs were incubated or not for 24 hours with 10 μM of the indicated compound, washed and stained with JC1 and Hoechst followed by image-based single-cell analysis. […]
To assay the compounds, cellROX, a reactive oxygen species (ROS) fluorescent detector and a preferred in-situ mitochondrial content detector, was used for single cell-based imaging analysis as detailed previously (Raini et al., 2017). […] Compounds toxicity was evaluated by testing cell survival following 24 hours incubation with 10 μM of each compound using crystal violet staining (FIG. 14B). […] The other 19 compounds were not toxic; therefore, maximal working concentrations tolerated by the cells were further evaluated (Table 3 hereinbelow).

Mut MEFs [3] = test: JC1 staining of intact and damaged mitochondria (mitochondrial membrane potential); assay type: cell-based, mouse; details: Mut MEFs
Protocol: Mut MEFs were treated or not for 6 hours with the indicated concentrations of p8G5 (blue), pre084 (purple), or NE-100 (yellow), washed and stained with Hoechst and JC1 for 30 minutes followed by image acquisition using In-Cell-Analyzer-2000. Shown is the % of red/green JC1 integrated intensity per cell relative to that in untreated WT cells of 2-4 independent experiments.
Following, the cells were washed, stained with Hoechst and JC-1 fluorescent dyes for 30 minutes, and subjected to image acquisition using In-Cell-Analyzer-2000. Shown is cellular content of damaged mitochondria (JC1 green channel, red bars), intact mitochondria (JC1 red channel, green bars) and damaged to intact mitochondria ratio (blue bars). Values of control (vehicle treated) cells was set to 100%.
Mut MEFs were treated with the indicated compounds at 10 μM for 24 hours followed by staining with fluorogenic dyes and image-based single-cell analysis. Shown is average effect on ROS level from at least 3-independent experiments ±SEM. […] Mut MEFs were incubated or not for 24 hours with 10 μM of the indicated compound, washed and stained with Crystal Violet. […] Mut MEFs were incubated or not for 24 hours with 10 μM of the indicated compound, washed and stained with JC1 and Hoechst followed by image-based single-cell analysis. Values of untreated cells were set as 100%. Shown is average of at least 3 independent experiments for each parameter compared to its matching control ±SEM. * p<0.05. Putative targets are indicated.
Mut MEFs were incubated or not for 24 hours with 10 μM of the indicated compounds, washed and stained with Hoechst and JC1 followed by image-based single-cell analysis. […] Mut MEFs were incubated or not with the indicated concentrations of the indicated compounds for 2 hours followed by addition of 50 ng/ml Tunicamycin (Tun) for additional 22 hours, stained with Crystal Violet followed by measurement of absorbance at 570 nm.
MEFs were seeded on 1% gelatin-coated 96-wells plate at a density of 5000 cells per well. 24 hours post-plating the cells were incubated with the tested compounds for additional 24 hours. Several DMSO-treated cells (control) were included in each plate at different locations. Following, the cells were stained by addition of fluorogenic dyes for further 30 minutes incubation at 37° C. […] CellROX was used together with Hoechst and CFSE; JC1 was used together with Hoechst. Cells were washed with Hank's balanced salt solution (HBSS) which was used for images acquisition using IN Cell Analyzer 2000 (GE Healthcare, Pitsburgh, Pa., USA). IN Cell Developer Toolbox 1.9.1 software (GE Healthcare) was used for analysis which included cells segmentation using Hoechst and/or CFSE signals. For analysis of JC1 staining, integrated intensity of green and red emissions were used for detection of damaged and intact mitochondria, respectively.

WT astrocytes = test: Cell survival assay, Crystal violet staining, WT astrocytes; assay type: cell-based, mouse; details: 24 hours, untreated cells set to 100%
Protocol: as §1

Cc1cccc(OCCCCCN2CCOCC2)c1 [H8 (p8G5), 4-[5-(3-methylphenoxy)pentyl]morpholine]
Survival (%) ± SEM Mut MEFs (Mut MEFs [1]; 0.1 μM): 104 ± 4.6% | Survival (%) ± SEM Mut MEFs (Mut MEFs [1]; 1 μM): 102 ± 3.3% | Survival (%) ± SEM Mut MEFs (Mut MEFs [1]; 10 μM): 99 ± 2.6% | Survival (%) ± SEM Mut MEFs (Mut MEFs [1]; 30 μM): 105 ± 13% | effect on survival of Mut cells (Mut MEFs [1]; as high as 30 μM (FIG. 4, Table 3)): did not have any negative effect on the survival | level of ROS (CellROX) in Mut cells [2]: corrected the abnormal level of ROS | red/green JC1 signal (mitochondria with high to low membrane potential) (Mut MEFs [3]; 1 μM and 10 μM, 6 hours (FIG. 6)): increased the ratio between the content of mitochondria with high to low membrane potential | effect on mitochondrial health (JC1, intact and damaged mitochondria) (Mut MEFs [3]; 10 μM, 24 hours (FIG. 14C)): significant beneficial effect on mitochondrial health | Survival (%) ± SEM WT astrocytes (WT astrocytes; 1 μM): 132 ± 10.7% | Survival (%) ± SEM WT astrocytes (WT astrocytes; 10 μM): 102 ± 3.8% | Survival (%) ± SEM WT astrocytes (WT astrocytes; 30 μM): 99 ± 3.2%
